One test has as its system RKO. As to the kind of experiment: cells. It is filed as cell-based.
The next test concerns SW480. As to the kind of experiment: cells. It is filed as cell-based.
For test [1], the system named is HCT116 cells treated with a GSK3β inhibitor. As to the kind of experiment: cells. It is filed as cell-based.
The test system of another test is HCT116. As to the kind of experiment: cells. Format: cell-based.
Another test deals with DLD-1. As to the kind of experiment: cells. It is filed as cell-based.
The next test has as its system Colo320. As to the kind of experiment: cells. Format: cell-based.
The next test concerns SNU-C1. As to the kind of experiment: cells. Format: cell-based.
A further test deals with HT-29. As to the kind of experiment: cells. It is filed as cell-based.
The next test relates to HeLa cells. As to the kind of experiment: cells. It is filed as cell-based.
The subject of test [2] is endothelial tube formation in co-cultures of ECFCs and ADSCs treated with VEGF. As to the kind of experiment: cells. It is filed as cell-based, human.
The subject of test [3] is ECFC/ADSC co-culture cell nuclei number.
The mark [4] stands for this setting: assay number 26, GSK3b inhibitor pretreated.

Experimental findings from publication PMC4503722, “Novel Phenotypic Outcomes Identified for a Public Collection of Approved Drugs from a Publicly Accessible Panel of Assays” (PLoS ONE, 2015) are described below.

Where two headings read alike, the source gives them in different places.

For the compound `CN1CCC(=C2c3ccccc3C=Cc3ccccc32)CC1` [NCGC00015252-12], the “Basal_Viability ATP RKO IC50/EC50” value with RKO (assay number 29, basal) was 11.2853 µM. Also, in the test on SW480 (assay number 24, basal), the “Basal_Viability ATP SW480 IC50/EC50” value was determined as 5.9167 µM. Also, the “GSK3b inh pretreated_Viability ATP HCT116 IC50/EC50” value in test [1] (setting [4]) is > 20 µM. In addition, the “Basal_Viability ATP HCT116 IC50/EC50” value with HCT116 (assay number 25, basal) is > 20 µM. Further, the “Basal_Viability ATP DLD-1 IC50/EC50” value with DLD-1 (assay number 23, basal) is listed as > 20 µM. Further, in the test on Colo320 (assay number 27, basal), the “Basal_Viability ATP Colo 320 IC50/EC50” value is listed as > 20 µM. Besides, in the test with SNU-C1 (assay number 30, basal), the “Basal_Viability ATP SNU-C1 IC50/EC50” value is 10.7827 µM. For the same compound, the “Basal_Viability ATP HT-29 IC50/EC50” value in the test with HT-29 (assay number 28, basal) is > 20 µM.
Take `N#CC(C#N)=Cc1ccc(O)c(O)c1` [NCGC00016043-08]: the “IC50/EC50, Basal_Viability ATP RKO (assay number 29)” value in the test with RKO (basal) came out at 3.7756 µM. Also, the “IC50/EC50, Basal_Viability ATP SW480 (assay number 24)” value with SW480 (basal) is > 20 µM. The “IC50/EC50, GSK3b inh pretreated_Viability ATP HCT116 (assay number 26)” value in [1] (GSK3b inh pretreated) is listed as > 20 µM. The “IC50/EC50, Basal_Viability ATP HCT116 (assay number 25)” value in the test with HCT116 (basal) is listed as > 20 µM. In addition, the “IC50/EC50, Basal_Viability ATP DLD-1 (assay number 23)” value in the test with DLD-1 (basal) was > 20 µM. Moreover, the “IC50/EC50, Basal_Viability ATP Colo 320 (assay number 27)” value in the test on Colo320 (basal) was determined as 6.7406 µM. The “IC50/EC50, Basal_Viability ATP SNU-C1 (assay number 30)” value in the test on SNU-C1 (basal) is reported as > 20 µM. For the same compound, the “IC50/EC50, Basal_Viability ATP HT-29 (assay number 28)” value with HT-29 (basal) is on record as > 20 µM.
In general, IC50 refers to the point on the concentration scale where inhibition reaches its midpoint. Take `Cc1nnc(NS(=O)(=O)c2ccc(N)cc2)s1` [NCGC00016407-08]: the IC50 in the test on RKO (assay number 29, basal, read-out: Basal_Viability ATP RKO summarized IC50) was > 20 µM; in the test on SW480 (assay number 24, basal, read-out: Basal_Viability ATP SW480 summarized IC50), > 20 µM; in test [1] (assay number 26, GSK3b inhibitor pretreated, read-out: GSK3b inh pretreated_Viability ATP HCT116 summarized IC50) it was > 20 µM; with HCT116 (assay number 25, basal, read-out: Basal_Viability ATP HCT116 summarized IC50), > 20 µM; in the test with DLD-1 (assay number 23, basal, read-out: Basal_Viability ATP DLD-1 summarized IC50), > 20 µM; with Colo320 (assay number 27, basal, read-out: Basal_Viability ATP Colo 320 summarized IC50), > 20 µM. Besides, the IC50 in the test on SNU-C1 (assay number 30, basal, read-out: Basal_Viability ATP SNU-C1 summarized IC50) was > 20 µM; with HT-29 (assay number 28, basal, read-out: Basal_Viability ATP HT-29 summarized IC50), > 20 µM.
With `O=C1C(=O)c2ccccc2C(O)=C1C1CCC(c2ccc(Cl)cc2)CC1` (centres unmarked) [NCGC00016961-06], in the test on RKO (assay number 29, basal), the “Basal_Viability ATP RKO IC50/EC50” value came out at 0.1142 µM. Also, the “Basal_Viability ATP SW480 IC50/EC50” value in the test on SW480 (assay number 24, basal) was 0.0946 µM. Also, the “Hela CellCycMod PI 2N IC50/EC50” value with HeLa cells (assay number 14, 2N) is on record as > 10 µM. For the same compound, the “Hela CellCycMod PI 4N IC50/EC50” value with HeLa cells (assay number 16, 4N) is > 10 µM. Besides, the “Hela CellCycMod PI MI IC50/EC50” value with HeLa cells (assay number 17, MI) is on record as > 10 µM. Also, the “Hela CellCycMod PI Cell Number IC50/EC50” value with HeLa cells (assay number 18, cell number) is > 10 µM. Moreover, the “Basal_Viability ATP HCT116 IC50/EC50” value in the test on HCT116 (assay number 25, basal) was found to be 0.1384 µM. The “Basal_Viability ATP DLD-1 IC50/EC50” value in the test on DLD-1 (assay number 23, basal) is recorded as 0.0838 µM. Moreover, in the test on Colo320 (assay number 27, basal), the “Basal_Viability ATP Colo 320 IC50/EC50” value was 0.1764 µM. The “Basal_Viability ATP SNU-C1 IC50/EC50” value with SNU-C1 (assay number 30, basal) stood at 0.3675 µM. The “VEGF_ADSC\ECFC Angio CD31 TubeArea IC50/EC50” value in test [2] came to 5.1845 µM. Also, the “Basal_Viability ATP HT-29 IC50/EC50” value in the test on HT-29 (assay number 28, basal) came out at 0.4112 µM. Also, the “VEGF_ADSC\ECFC Angio Hoechst NucArea IC50/EC50” value in [3] is recorded as > 10 µM.
Regarding `C1CCC(C(CC2CCCCN2)C2CCCCC2)CC1.O=C(O)/C=C\C(=O)O` (centres unmarked) [NCGC00018261-06], in the test with RKO, the “Basal_Viability ATP RKO IC50/EC50” value came out at 7.8491 µM. Also, in the test with SW480, the “Basal_Viability ATP SW480 IC50/EC50” value is 5.7603 µM. In addition, in [1], the “GSK3b inh pretreated_Viability ATP HCT116 IC50/EC50” value is listed as 7.4207 µM. For the same compound, the “Basal_Viability ATP HCT116 IC50/EC50” value with HCT116 is > 20 µM. Also, the “Basal_Viability ATP DLD-1 IC50/EC50” value in the test on DLD-1 is given as > 20 µM. Also, in the test with Colo320, the “Basal_Viability ATP Colo 320 IC50/EC50” value amounted to 8.8632 µM. For the same compound, the “Basal_Viability ATP SNU-C1 IC50/EC50” value in the test on SNU-C1 is 2.48 µM. The “Basal_Viability ATP HT-29 IC50/EC50” value in the test with HT-29 is 6.8652 µM.
Consider `CCCCCCCCCCCCCCCCOP(=O)([O-])OCC[N+](C)(C)C` [NCGC00095169-05], for which the “Basal_Viability ATP RKO IC50/EC50” value in the test on RKO (assay number 29, basal) came out at 0.4372 µM. In the test with SW480 (assay number 24, basal), the “Basal_Viability ATP SW480 IC50/EC50” value worked out at 0.4782 µM. In [1] (setting [4]), the “GSK3b inh pretreated_Viability ATP HCT116 IC50/EC50” value amounted to 1.476 µM. Moreover, the “Basal_Viability ATP HCT116 IC50/EC50” value with HCT116 (assay number 25, basal) is 3.393 µM. Besides, the “Basal_Viability ATP DLD-1 IC50/EC50” value with DLD-1 (assay number 23, basal) was found to be 1.23 µM. Further, the “Basal_Viability ATP Colo 320 IC50/EC50” value in the test on Colo320 (assay number 27, basal) is on record as 1.49 µM. The “Basal_Viability ATP SNU-C1 IC50/EC50” value in the test with SNU-C1 (assay number 30, basal) amounted to 0.9649 µM. In addition, in the test on HT-29 (assay number 28, basal), the “Basal_Viability ATP HT-29 IC50/EC50” value came to 1.955 µM.
